{"source": "patent US20070224253A1", "about": "“Transdermal Delivery of Meptazinol” (Shire Pharmaceuticals Inc., priority 2005, published 2007)", "key": {"[1]": {"test": "Yellow discoloration of the meptazinol gel on standing, effect of antioxidants", "type": "physicochemical", "conditions": "antioxidant included in meptazinol gel; BHT 0.02-0.05%, ascorbic acid 0.05%"}, "[2]": {"test": "Saturated solubility in potential delivery vehicle (oleic acid/dimethyl isosorbide/propylene glycol)", "conditions": "in 2% oleic acid: 2% dimethyl isosorbide: 96% propylene glycol; for solubility: 2% oleic acid: 2% dimethyl isosorbide: 96% propylene glycol, 32 °C, organic solvent or mixture, thermodynamic from solid, Solubility at 32° C."}, "[3]": {"test": "Transdermal permeation through human skin in Franz cell in vitro apparatus", "conditions": "for Skin flux / permeation compared with other forms (in words): Franz cell; for Flux: individual Franz cell/donor; for Flux / Mean flux ± sd: vehicle 2% oleic acid: 2% dimethyl isosorbide: 96% propylene glycol; for Mean flux ± sd: mean over donors"}, "[4]": {"conditions": "cited from earlier work"}, "[5]": {"test": "Aqueous solubility", "type": "physicochemical", "conditions": "aqueous solution"}, "[6]": {"conditions": "estimated from visual assessment only"}, "[7]": {"conditions": "listed as M HCl (1), hydrochloride"}, "[8]": {"conditions": "listed as M HCl (2), hydrochloride"}}, "note": "Where “and” joins values, the source holds several entries; their conditions need not be identical. Equal values may be shown once. Entries after “also recorded” stand apart in the source; their conditions may differ. Where a name gives a salt, the structure may show the parent alone. Marks after values point to notes of the source that are not given here."}
{"compound": "O=C1O[C@H]([C@@H](O)CO)C(O)=C1O", "note": "[Ascorbic acid]", "values": [{"measurement": "Effect on yellow discoloration of the gel", "setting": "[1]", "value": "some reduction"}]}
{"compound": "CC1(C)C2CCC1(CS(=O)(=O)O)C(=O)C2.CCC1(c2cccc(O)c2)CCCCN(C)C1", "note": "(stereo not drawn) [Meptazinol camsylate]", "values": [{"measurement": "Solubility at 32° C.", "setting": "[2]; [6]", "value": "˜250** mg/ml"}, {"measurement": "Skin flux / permeation compared with other forms (in words)", "setting": "[3]", "value": "less effective in improving flux"}, {"measurement": "Flux", "setting": "[3]; listed as M camsylate", "value": "78.1 ug/cm^2/h and 110.9 ug/cm^2/h and 27.3 ug/cm^2/h and 45.1 ug/cm^2/h and 204.2 ug/cm^2/h and 9.5 ug/cm^2/h"}, {"measurement": "Mean flux ± sd", "setting": "[3]", "value": "79.2 ± 71.2", "unit": "ug/cm^2/h"}]}
{"compound": "CCC1(c2cccc(O)c2)CCCCN(C)C1", "note": "(stereo not drawn) [Meptazinol free base, Meptazinol]", "values": [{"measurement": "solubility", "setting": "[2]; [6]", "value": "~20", "unit": "mg/mL"}, {"measurement": "Skin flux / permeation compared with other forms (in words)", "setting": "[3]", "value": "unexpectedly poor flux in comparison to the various salt forms"}, {"measurement": "Plasma half-life", "setting": "[4]; in vivo", "value": "1.5 to 2.0", "unit": "h"}, {"measurement": "Fraction of an oral dose removed by first pass metabolism through the liver", "setting": "[4]; oral", "value": "up to 98.1%"}, {"measurement": "Oral bioavailability, reported mean values", "setting": "[4]; oral", "value": "4-9%"}, {"measurement": "solubility", "setting": "[5]", "value": 0.17, "unit": "mg/mL"}]}
{"compound": "CCC1(c2cccc(O)c2)CCCCN(C)C1", "note": "(stereo not drawn) [Meptazinol hydrochloride, reference compound]", "values": [{"measurement": "solubility", "setting": "[2]; measured by HPLC", "value": 78, "unit": "mg/mL"}, {"measurement": "Skin flux / permeation compared with other forms (in words)", "setting": "[3]; listed as hydrochloride, hydrochloride", "value": "more rapidly absorbed"}, {"measurement": "Skin flux / permeation compared with other forms (in words)", "setting": "[3]; listed as meptazinol hydrochloride, hydrochloride", "value": "much better permeant than the maleate; also recorded: higher flux rate than the camsylate; also recorded: substantially greater flux than the free base; also recorded: several times better than the meptazinol free base"}, {"measurement": "Flux", "setting": "[3]; [7]", "value": "135.7 ug/cm^2/h and 218.0 ug/cm^2/h and 132.6 ug/cm^2/h and 197.1 ug/cm^2/h and 194.0 ug/cm^2/h and 162.5 ug/cm^2/h"}, {"measurement": "Flux", "setting": "[3]; [8]", "value": "66.5 ug/cm^2/h and 222.6 ug/cm^2/h and 213.4 ug/cm^2/h (2×)"}, {"measurement": "Mean flux ± sd", "setting": "[3]; [7]", "value": "173.3 ± 35.2", "unit": "ug/cm^2/h"}, {"measurement": "Mean flux ± sd", "setting": "[3]; [8]", "value": "179.0 ± 75.1", "unit": "ug/cm^2/h"}]}
{"compound": "Cc1c(C)c2c(c(C)c1O)CC[C@@](C)(CCC[C@H](C)CCC[C@H](C)CCCC(C)C)O2", "note": "[alpha tocopherol]", "values": [{"measurement": "Effect on yellow discoloration of the gel", "setting": "[1]", "value": "did not"}]}
{"compound": "COc1ccc(O)c(C(C)(C)C)c1", "note": "[butylated hydroxy anisole]", "values": [{"measurement": "Effect on yellow discoloration of the gel", "setting": "[1]", "value": "did not"}]}
{"compound": "Cc1cc(C(C)(C)C)c(O)c(C(C)(C)C)c1", "note": "[butylated hydroxy toluene]", "values": [{"measurement": "Effect on yellow discoloration of the gel", "setting": "[1]", "value": "completely eliminated"}]}
{"compound": "Oc1cccc(O)c1O", "note": "[pyrogallol]", "values": [{"measurement": "Effect on yellow discoloration of the gel", "setting": "[1]", "value": "did not"}]}
{"compound": "Meptazinol maleate", "values": [{"measurement": "Solubility at 32° C.", "setting": "[2]; measured by HPLC", "value": "105* mg/ml"}, {"measurement": "Flux", "setting": "[3]; listed as M maleate", "value": "41.3 ug/cm^2/h and 91.3 ug/cm^2/h and 85.3 ug/cm^2/h and 93.9 ug/cm^2/h"}, {"measurement": "Mean flux ± sd", "setting": "[3]", "value": "78.0 ± 24.7", "unit": "ug/cm^2/h"}]}
{"compound": "Meptazinol tosylate", "values": [{"measurement": "Solubility at 32° C.", "setting": "[2]; [6]", "value": "˜140** mg/ml"}, {"measurement": "Skin flux / permeation compared with other forms (in words)", "setting": "[3]", "value": "less effective in improving flux"}, {"measurement": "Flux", "setting": "[3]; listed as M tosylate", "value": "158.8 ug/cm^2/h and 165.0 ug/cm^2/h and 90.9 ug/cm^2/h and 39.6 ug/cm^2/h and 273.7 ug/cm^2/h and 87.4 ug/cm^2/h"}, {"measurement": "Mean flux ± sd", "setting": "[3]", "value": "135.9 ± 82.5", "unit": "ug/cm^2/h"}]}
{"compound": "Meptazinol trifluoroacetate", "values": [{"measurement": "Solubility at 32° C.", "setting": "[2]; measured by HPLC", "value": "170* mg/ml"}, {"measurement": "Skin flux / permeation compared with other forms (in words)", "setting": "[3]", "value": "more rapidly absorbed"}, {"measurement": "Flux", "setting": "[3]; listed as M TFA", "value": "29.1 ug/cm^2/h and 422.2 ug/cm^2/h and 163.8 ug/cm^2/h and 282.3 ug/cm^2/h"}, {"measurement": "Mean flux ± sd", "setting": "[3]", "value": "224.4 ± 167.6", "unit": "ug/cm^2/h"}]}
